# Reference: ChEMBL document CHEMBL1201862, “PubChem BioAssay data set” (2004)
# Active and inactive are the calls of the source.
# Key:
# [1] = NIH-3T3 fibroblast cytotoxicity, dose response, cytotoxicity control, cell-based, fluorescence, Alamar Blue, secondary assay (AID 2327); format: functional;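 note: NIH-3T3 mouse fibroblasts cultured with fluconazole at 8 µg/mL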
# [2] = test system: HEK293; assay: inhibition of NOD1-driven NF-kB reporter – cell-based, luminescence, uHTS, primary screen (AID 1578); format: functional; settings: Homo sapiens
# [3] = test system: BJ; assay: BJ-TERT fibroblast viability loss – cell-based, RAS-independent, luminescence, dose response (AID 1933); format: functional; settings: Homo sapiens
# [4] = test system: HEK293; assay: cells; format: functional, cell-based; settings: Homo sapiens
# [5] = test system: BJ; assay: cells; format: functional, cell-based; settings: Homo sapiens
# [6] = fluconazole-exposed Candida albicans growth modulators – fluorescence, retest, confirmation (AID 2467); format: functional, cell-based
# [7] = test system: HEK293; assay: cells; format: functional, cell-based; settings: Homo sapiens; remark: listed apart in the source
# [8] = target: Nucleotide-binding oligomerization domain-containing protein 2 (Homo sapiens, UniProt Q9HC29); assay: inhibition of NOD2-driven NF-kB reporter – cell-based, luminescence, uHTS, HEK293 (AID 1566); format: functional
# [9] = test system: HEK293; assay: NOD2 signaling inhibitors in MDP-stimulated cells, cell-based, uHTS, luminescence (AID 2001); format: functional; settings: Homo sapiens
# [10] = test system: HEK293; assay: cells; format: functional, cell-based; settings: Homo sapiens; remark: listed apart in the source
# [11] = target: T1, Serine/threonine-protein phosphatase (Candida dubliniensis (strain CD36 / CBS 7987 / NCPF 3949 / NRRLY-17841) (Yeast), UniProt B9W6M3); assay: blockers of CaCl2-induced CDRE-lacZ signaling – S. cerevisiae, luminescence, secondary, dose response (AID 2388); format: functional, cell-based;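 note: yeast reporter cells carrying a calcineurin-responsive lacZ construct stimulated with calcium chloride; luminescent beta-galactosidase reporter signal in whole cells rather than isolated phosphatase activity; potency for inhibition where a drop in reporter signal means calcineurin blockade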
# T1 sequence (B9W6M3 whole entry): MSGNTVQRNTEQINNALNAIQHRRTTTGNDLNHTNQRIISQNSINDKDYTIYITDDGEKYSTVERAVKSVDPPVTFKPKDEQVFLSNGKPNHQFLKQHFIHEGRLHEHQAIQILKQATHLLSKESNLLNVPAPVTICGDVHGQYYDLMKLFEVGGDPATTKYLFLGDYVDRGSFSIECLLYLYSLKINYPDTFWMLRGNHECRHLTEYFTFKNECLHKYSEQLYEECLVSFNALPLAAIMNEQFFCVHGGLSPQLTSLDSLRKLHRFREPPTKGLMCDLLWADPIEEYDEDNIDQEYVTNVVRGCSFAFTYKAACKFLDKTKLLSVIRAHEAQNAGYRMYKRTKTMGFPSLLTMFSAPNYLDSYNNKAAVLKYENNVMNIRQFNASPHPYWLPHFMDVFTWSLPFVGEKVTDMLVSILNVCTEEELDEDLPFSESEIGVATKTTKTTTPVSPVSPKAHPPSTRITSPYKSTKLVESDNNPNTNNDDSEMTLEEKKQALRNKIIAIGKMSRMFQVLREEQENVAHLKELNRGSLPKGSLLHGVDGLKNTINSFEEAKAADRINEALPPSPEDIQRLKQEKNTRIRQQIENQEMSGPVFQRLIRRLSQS
# [12] = target: Voltage-gated inwardly rectifying potassium channel KCNH2 (Homo sapiens, UniProt Q12809); assay: concentration-dependent hERG rescue from blockers – cell-based, thallium flux, dose response (AID 2121); format: ADME
# [13] = test system: BJ; assay: BJ-TERT-LT-ST fibroblast viability loss – cell-based, RAS-independent, luminescence, dose response (AID 1935); format: functional; settings: Homo sapiens;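 note: BJ fibroblasts immortalized with TERT plus LT and ST oncogenes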
# [14] = DRD fibroblast viability loss – cell-based, non-viral oncogenic, luminescence, dose response (AID 1934); format: functional; settings: Homo sapiens
# [15] = test system: HEK293; assay: EBV LMP1 TES2 canonical NF-kB signalling blockers – cell-based, HEK293, luciferase, cherry-pick, dose response (AID 588343); format: functional; settings: Homo sapiens
# [16] = target: Heat shock protein HSP 90-alpha (Homo sapiens, UniProt P07900); format: functional, organism-based
# [17] = test system: Vero; assay: cells; format: functional, cell-based; settings: Chlorocebus sabaeus
# [18] = test system: BJ; assay: growth inhibition of engineered Ras-driven BJ cells – cell-based, alamar blue fluorescence, cherrypicked samples, dose response (AID 2631); format: functional; settings: Homo sapiens;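 note: confirmatory dose-response assay in RAS-dependent BJ fibroblasts engineered with TERT, LT and ST, with cytotoxicity read by fluorescence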
# [19] = test system: INS1; assay: INS-1E survival protection against cytokine death – cell-based, luminescence, retest, dose response (AID 449756); format: functional; settings: Rattus norvegicus;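 note: cell death triggered by IL-1 beta plus TNF-alpha plus IFN-gamma mixture; protective hits raise ATP signal compared with cytokine alone wells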
# [20] = test system: Vero; assay: cells; format: functional; settings: Chlorocebus sabaeus
# [21] = target: ATP-dependent molecular chaperone HSP82 (Candida albicans (strain WO-1) (Yeast), UniProt C4YTQ8); assay: steroid-induced GRE reporter decrease in yeast – S. cerevisiae, luminescence, Hsp90 inhibitor project, dose response (AID 2400); format: functional, cell-based;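 note: beta-galactosidase luminescence from glucocorticoid response element reporter as proxy for Hsp90 function; inhibitor potency where signal loss means Hsp90 inhibition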
# [22] = target: T2, RNA-binding protein pos-1 (Caenorhabditis elegans, UniProt G5EF15); assay: disruptors of C. elegans POS-1 RNA interaction – biochemical, fluorescence polarization, dose response (AID 1964);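 note: purified POS-1 fused to maltose binding protein made in E. coli; potency of compounds blocking POS-1 binding to fluorescent RNA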
# T2 sequence (G5EF15 whole entry): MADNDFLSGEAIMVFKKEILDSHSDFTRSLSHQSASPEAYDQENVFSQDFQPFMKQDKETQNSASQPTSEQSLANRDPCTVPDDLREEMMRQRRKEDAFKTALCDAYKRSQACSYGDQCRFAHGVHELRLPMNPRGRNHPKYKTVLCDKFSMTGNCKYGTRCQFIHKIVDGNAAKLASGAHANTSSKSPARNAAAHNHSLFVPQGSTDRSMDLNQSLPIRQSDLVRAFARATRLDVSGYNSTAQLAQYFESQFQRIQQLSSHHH
# [23] = Counterscreen for IDE inhibitors: Luminescence-based cell-based high throughput dose response assay to identify compounds that are cytotoxic to HEK cells. [Related pubchem assays: 434962 (Primary screen (IDE inhibitors in singlicate)), 449730 (Counterscreen (Cytotoxicity in triplicate)), 435028 (Confirmation (IDE inhibitors in triplicate)) …; format: functional; settings: HEK293
# [24] = target: T3, Zinc finger protein mex-5 (Caenorhabditis elegans, UniProt Q9XUB2); assay: potency of MEX-5 RNA-binding blockers – biochemical, C. elegans, fluorescence polarization, dose response (AID 1960)
# T3 sequence (Q9XUB2 whole entry): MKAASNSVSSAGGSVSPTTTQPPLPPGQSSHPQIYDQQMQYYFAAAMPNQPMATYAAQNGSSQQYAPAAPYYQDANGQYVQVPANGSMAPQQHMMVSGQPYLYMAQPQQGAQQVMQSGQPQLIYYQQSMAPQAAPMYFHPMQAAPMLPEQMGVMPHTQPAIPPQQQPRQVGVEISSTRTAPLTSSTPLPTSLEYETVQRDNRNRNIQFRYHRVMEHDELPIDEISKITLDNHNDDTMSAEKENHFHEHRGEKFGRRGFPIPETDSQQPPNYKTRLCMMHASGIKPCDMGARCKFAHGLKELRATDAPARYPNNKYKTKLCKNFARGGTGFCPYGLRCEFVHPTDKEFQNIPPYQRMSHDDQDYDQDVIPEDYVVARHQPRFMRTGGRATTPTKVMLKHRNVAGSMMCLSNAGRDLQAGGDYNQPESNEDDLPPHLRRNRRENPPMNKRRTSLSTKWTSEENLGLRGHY
# [25] = target: T4, Insulin-degrading enzyme (Homo sapiens, UniProt P14735); assay: Dose Response: Fluorescence polarization-based cell-based high throughput dose response assay for inhibitors of insulin-degrading enzyme (IDE). [Related pubchem assays: 434962 (Primary screen (IDE inhibitors in singlicate)), 449730 (Counterscreen (Cytotoxicity in triplicate)), 435028 (Confirmation (IDE inhibitors in triplicate)), 434984 (Summary …; format: functional
# T4 sequence (P14735 whole entry): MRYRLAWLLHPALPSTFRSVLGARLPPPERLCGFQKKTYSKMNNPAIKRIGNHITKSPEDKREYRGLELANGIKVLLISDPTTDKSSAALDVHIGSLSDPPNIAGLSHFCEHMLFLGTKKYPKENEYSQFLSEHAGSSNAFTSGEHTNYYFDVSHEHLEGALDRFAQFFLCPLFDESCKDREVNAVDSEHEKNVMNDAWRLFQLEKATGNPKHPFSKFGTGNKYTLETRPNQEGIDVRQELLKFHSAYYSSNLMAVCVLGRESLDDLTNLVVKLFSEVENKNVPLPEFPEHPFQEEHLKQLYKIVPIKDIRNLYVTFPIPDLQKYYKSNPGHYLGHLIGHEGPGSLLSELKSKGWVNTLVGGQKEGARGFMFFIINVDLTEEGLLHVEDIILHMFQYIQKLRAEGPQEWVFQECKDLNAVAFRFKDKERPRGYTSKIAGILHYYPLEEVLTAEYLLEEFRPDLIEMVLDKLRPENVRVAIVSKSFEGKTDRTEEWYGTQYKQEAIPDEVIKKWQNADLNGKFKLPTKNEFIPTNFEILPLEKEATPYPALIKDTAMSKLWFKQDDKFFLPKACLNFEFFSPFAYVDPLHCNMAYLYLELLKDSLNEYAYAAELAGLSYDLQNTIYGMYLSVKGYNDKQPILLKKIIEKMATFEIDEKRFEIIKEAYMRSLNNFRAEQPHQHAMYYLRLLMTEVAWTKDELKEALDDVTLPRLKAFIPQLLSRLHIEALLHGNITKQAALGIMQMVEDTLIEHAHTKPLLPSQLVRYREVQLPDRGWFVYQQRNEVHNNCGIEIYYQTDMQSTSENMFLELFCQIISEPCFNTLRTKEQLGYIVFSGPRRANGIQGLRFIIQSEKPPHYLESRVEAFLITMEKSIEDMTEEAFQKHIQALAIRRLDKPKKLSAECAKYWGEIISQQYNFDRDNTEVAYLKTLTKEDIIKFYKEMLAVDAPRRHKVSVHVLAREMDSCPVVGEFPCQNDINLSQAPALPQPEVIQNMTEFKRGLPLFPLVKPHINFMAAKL
# [26] = target: 26S proteasome non-ATPase regulatory subunit 14 (Homo sapiens, UniProt O00487); assay: inhibition of proteasome subunit RPN11 – biochemical, fluorescence polarization, uHTS hits, confirmation (AID 602368); format: functional
# [27] = target: 72 kDa type IV collagenase (Homo sapiens, UniProt P08253); assay: Dose Response validation of uHTS RPN11 inhibitor hits using a MMP-2 Fluorescence assay.; format: functional
# [28] = target: Prothrombin (Bos taurus, UniProt P00735); assay: thrombin protease inhibitors – biochemical, fluorescence polarization, uHTS hits, dose response (AID 602369); format: functional
# [29] = target: Peroxisome proliferator-activated receptor gamma/Nuclear receptor coactivator 2 (Homo sapiens, UniProt P37231); format: functional;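 note: agonist potency for raising coactivator recruitment to the receptor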
# [30] = target: Peroxisome proliferator-activated receptor gamma/Nuclear receptor coactivator 1 (Homo sapiens, UniProt P37231); format: functional;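 note: agonist potency as compounds enhance coactivator SRC-1 recruitment to PPARgamma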
# [31] = target: Peroxisome proliferator-activated receptor gamma/Nuclear receptor coactivator 3 (Homo sapiens, UniProt P37231); format: functional;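 note: agonist potency for raising coactivator recruitment to the receptor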
# [32] = target: Mucolipin-3 (Homo sapiens, UniProt Q8TDD5); assay: Dose response cell-based high-throughput screening assay for agonists of the transient receptor potential channel ML3 (TRPML3). [Related pubchem assays: 1526, 1424, 1448 ]; format: functional
# [33] = target: Ion channel NompC (Danio rerio, UniProt Q7T1G6); assay: Fluorescence counterscreen assay for TRPML3 agonists: dose response cell-based high-throughput screening assay to identify agonists of the transient receptor potential channel N1 (TRPN1). [Related pubchem assays: 1526, 1424, 1448 ]; format: functional
# [34] = target: T5, Mannose-6-phosphate isomerase (Homo sapiens, UniProt P34949); assay: MPI enzyme activity inhibition – biochemical, fluorescence intensity, coupled assay, primary screen (AID 1209)
# T5 sequence (P34949 whole entry): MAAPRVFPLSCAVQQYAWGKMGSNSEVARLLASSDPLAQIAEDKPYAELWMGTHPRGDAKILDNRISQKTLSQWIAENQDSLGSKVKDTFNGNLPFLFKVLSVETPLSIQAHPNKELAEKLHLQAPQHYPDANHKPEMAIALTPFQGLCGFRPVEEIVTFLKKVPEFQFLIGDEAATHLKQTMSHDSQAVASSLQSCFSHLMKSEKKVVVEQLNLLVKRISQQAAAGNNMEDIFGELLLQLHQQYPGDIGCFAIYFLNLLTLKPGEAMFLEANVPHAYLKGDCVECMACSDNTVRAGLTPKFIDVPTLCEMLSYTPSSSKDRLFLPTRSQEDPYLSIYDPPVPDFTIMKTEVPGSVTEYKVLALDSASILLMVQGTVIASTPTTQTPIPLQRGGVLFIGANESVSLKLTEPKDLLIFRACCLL
# Chain of Mucolipin-3 (Q8TDD5 whole entry): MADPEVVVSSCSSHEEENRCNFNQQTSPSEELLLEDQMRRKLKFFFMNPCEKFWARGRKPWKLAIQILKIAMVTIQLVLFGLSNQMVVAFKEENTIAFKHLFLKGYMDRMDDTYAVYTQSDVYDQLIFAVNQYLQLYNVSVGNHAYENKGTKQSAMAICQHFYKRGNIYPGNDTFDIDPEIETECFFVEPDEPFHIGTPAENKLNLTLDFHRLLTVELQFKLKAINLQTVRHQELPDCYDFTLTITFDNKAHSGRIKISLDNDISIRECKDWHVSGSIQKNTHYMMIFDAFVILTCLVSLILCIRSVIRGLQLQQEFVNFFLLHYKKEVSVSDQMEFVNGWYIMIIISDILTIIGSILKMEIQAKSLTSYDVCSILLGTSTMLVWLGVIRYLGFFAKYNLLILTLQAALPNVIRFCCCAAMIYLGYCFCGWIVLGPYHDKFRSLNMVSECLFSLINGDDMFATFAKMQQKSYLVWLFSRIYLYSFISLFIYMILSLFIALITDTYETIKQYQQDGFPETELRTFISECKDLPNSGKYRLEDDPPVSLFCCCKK
# Chain of 26S proteasome non-ATPase regulatory subunit 14 (O00487 whole entry): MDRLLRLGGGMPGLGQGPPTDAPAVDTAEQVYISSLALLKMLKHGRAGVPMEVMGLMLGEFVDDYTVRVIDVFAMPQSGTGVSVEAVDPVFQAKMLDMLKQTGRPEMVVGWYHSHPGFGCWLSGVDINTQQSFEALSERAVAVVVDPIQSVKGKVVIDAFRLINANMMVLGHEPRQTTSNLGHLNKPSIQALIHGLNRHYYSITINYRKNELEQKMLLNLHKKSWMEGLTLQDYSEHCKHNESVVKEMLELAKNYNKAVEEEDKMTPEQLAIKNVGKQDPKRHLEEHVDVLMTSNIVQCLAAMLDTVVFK
# Chain of Peroxisome proliferator-activated receptor gamma/Nuclear receptor coactivator 3 (P37231 whole entry): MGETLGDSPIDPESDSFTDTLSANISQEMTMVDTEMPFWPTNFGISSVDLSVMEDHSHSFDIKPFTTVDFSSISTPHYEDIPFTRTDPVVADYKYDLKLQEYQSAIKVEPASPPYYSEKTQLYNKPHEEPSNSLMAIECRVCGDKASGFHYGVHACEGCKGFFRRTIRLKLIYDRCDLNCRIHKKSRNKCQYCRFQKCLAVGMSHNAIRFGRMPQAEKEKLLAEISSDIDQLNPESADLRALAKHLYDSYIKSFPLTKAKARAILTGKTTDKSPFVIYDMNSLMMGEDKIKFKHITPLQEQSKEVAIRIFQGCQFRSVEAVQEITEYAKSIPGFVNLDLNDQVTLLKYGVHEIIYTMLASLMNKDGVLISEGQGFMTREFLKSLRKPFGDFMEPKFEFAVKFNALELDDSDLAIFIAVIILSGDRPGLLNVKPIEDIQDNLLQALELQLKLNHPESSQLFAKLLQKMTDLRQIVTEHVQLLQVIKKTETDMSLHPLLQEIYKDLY
# Chain of Peroxisome proliferator-activated receptor gamma/Nuclear receptor coactivator 3 (Q9Y6Q9 whole entry, further chain): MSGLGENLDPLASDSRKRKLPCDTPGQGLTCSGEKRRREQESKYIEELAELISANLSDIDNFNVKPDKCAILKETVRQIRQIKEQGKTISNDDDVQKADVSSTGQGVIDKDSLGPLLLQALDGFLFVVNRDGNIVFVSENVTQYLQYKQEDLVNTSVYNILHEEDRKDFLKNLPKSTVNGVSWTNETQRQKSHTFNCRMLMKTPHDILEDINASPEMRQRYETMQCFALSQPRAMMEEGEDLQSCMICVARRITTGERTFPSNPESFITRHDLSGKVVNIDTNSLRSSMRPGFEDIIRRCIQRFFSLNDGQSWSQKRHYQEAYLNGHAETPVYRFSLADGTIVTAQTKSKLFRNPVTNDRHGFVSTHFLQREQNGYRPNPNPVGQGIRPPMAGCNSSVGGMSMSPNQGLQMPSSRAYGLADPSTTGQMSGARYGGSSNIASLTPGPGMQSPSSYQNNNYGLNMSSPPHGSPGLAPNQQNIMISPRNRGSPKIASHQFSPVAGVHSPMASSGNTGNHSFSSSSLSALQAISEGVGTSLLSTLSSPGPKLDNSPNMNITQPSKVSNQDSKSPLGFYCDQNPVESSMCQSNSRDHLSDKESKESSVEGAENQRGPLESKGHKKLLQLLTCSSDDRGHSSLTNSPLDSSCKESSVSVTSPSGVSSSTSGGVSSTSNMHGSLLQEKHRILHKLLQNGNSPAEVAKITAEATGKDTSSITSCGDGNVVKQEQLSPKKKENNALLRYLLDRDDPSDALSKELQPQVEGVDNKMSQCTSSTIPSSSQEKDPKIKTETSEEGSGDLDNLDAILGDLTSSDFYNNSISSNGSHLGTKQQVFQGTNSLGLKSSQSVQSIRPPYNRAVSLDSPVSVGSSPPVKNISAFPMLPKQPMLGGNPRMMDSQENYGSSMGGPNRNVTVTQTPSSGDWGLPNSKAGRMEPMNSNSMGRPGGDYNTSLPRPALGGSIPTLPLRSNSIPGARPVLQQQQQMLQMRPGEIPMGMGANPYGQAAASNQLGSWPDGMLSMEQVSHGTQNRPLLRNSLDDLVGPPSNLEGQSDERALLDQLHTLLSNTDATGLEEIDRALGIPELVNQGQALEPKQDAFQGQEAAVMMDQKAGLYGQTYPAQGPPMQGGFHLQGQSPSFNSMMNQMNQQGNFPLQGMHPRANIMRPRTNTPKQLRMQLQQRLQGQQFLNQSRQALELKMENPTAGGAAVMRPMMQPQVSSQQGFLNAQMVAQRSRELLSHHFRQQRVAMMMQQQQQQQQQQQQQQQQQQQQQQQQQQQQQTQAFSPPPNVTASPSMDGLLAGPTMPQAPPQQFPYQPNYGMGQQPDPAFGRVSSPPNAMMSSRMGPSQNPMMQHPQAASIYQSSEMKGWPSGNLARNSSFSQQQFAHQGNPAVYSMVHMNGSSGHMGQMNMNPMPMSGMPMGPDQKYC
# Chain of Peroxisome proliferator-activated receptor gamma/Nuclear receptor coactivator 1 (P37231 whole entry): as the sequence (P37231 whole entry) above
# Chain of Peroxisome proliferator-activated receptor gamma/Nuclear receptor coactivator 1 (Q15788 whole entry, further chain): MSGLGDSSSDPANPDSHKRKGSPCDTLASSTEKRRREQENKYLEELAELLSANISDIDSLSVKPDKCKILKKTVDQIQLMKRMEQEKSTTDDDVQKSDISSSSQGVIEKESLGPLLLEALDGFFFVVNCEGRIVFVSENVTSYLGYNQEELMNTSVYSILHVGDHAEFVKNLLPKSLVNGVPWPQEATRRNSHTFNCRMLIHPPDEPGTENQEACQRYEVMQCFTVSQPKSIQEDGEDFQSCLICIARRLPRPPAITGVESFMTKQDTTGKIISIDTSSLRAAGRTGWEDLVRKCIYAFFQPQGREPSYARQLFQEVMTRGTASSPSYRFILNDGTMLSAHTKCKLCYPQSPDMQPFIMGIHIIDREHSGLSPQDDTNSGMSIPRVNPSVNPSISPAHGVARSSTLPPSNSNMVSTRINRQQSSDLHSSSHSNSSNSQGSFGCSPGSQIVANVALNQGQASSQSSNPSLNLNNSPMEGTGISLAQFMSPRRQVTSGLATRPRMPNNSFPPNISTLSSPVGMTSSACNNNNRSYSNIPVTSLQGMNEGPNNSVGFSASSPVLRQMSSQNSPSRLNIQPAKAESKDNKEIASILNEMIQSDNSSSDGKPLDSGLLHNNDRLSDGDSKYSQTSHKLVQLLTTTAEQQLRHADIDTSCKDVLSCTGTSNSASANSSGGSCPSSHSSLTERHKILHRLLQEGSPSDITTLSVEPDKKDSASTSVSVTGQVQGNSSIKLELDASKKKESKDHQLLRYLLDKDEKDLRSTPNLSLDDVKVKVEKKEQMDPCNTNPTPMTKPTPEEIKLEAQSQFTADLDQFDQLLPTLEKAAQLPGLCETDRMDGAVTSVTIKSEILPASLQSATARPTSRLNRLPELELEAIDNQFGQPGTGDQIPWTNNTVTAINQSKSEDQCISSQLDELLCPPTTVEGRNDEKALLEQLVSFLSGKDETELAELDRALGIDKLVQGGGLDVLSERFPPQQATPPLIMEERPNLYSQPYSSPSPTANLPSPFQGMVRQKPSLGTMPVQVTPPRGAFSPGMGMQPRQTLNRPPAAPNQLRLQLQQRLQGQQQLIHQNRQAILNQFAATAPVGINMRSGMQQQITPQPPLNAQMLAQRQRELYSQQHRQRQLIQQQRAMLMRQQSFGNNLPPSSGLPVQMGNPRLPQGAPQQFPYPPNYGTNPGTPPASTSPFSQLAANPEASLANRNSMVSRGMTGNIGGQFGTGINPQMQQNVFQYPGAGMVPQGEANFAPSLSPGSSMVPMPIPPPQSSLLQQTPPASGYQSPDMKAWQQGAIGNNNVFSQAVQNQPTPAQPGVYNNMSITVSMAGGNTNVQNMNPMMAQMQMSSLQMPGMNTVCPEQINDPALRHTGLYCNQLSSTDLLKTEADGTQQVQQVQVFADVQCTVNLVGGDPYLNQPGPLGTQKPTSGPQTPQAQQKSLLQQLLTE
structure (smiles),measurement,setting,value
COc1cccc(N=Nc2ccc(O)c3ncccc23)c1,EC50,[1],> 160 µM (inactive)
same,EC50,[2],3.74 µM (active)
same,EC50,[3],7.7 µM (inconclusive)
same,IC50,[4],3.04 µM (active)
same,EC50,[5],2.8 µM (inconclusive)
same,EC50,[6],0.79 µM (active)
same,IC50,[7],> 20 µM (inactive)
same,EC50,[8],> 20 µM (inactive)
same,IC50,[9],3.4 µM (inactive)
same,IC50,[10],> 20 µM (inactive)
same,EC50,[11],> 180 µM (inactive)
same,EC50,[12],2.99 µM (active)
same,EC50,[13],8.08 µM (inconclusive)
same,EC50,[14],12.7 µM (inconclusive)
same,AC50,[15],3.6 µM (active)
same,AC50,[16],4.01 µM (active)
same,IC50,[17],> 25 µM (active)
same,EC50,[18],1.05 µM (active)
same,AC50,[19],2.1 µM (active)
same,CC50,[20],6.41 µM (active)
same,EC50,[21],13.6 µM (active)
COc1cc(OC)c(OC)cc1/C=C1\Oc2cc(OS(C)(=O)=O)ccc2C1=O,EC50,[22],> 300 µM (not active)
same,IC50,[23],> 55.7 µM (not active)
same,EC50,[24],> 300 µM (not active)
same,IC50,[25],> 55.9 µM (not active)
same,IC50,[26],4.35 µM (active)
same,IC50,[27],> 100 µM (inactive)
same,IC50,[28],0.468 µM (active)
CC(=O)Nc1c(O)nc(SCC(=O)Nc2ccc(C(C)=O)cc2)[nH]c1=O,EC50,[29],> 79.4 µM (not active)
same,EC50,[30],> 79.4 µM (not active)
same,EC50,[31],> 79.4 µM (not active)
Cc1ccc(S(=O)(=O)N2CC3CCCC2C3)cc1 (stereo unspecified),EC50,[32],3.78 µM (active)
same,EC50,[33],> 29.9 µM (not active)
CC(=O)Nc1cc(/N=C/c2ccc(O)cc2O)c(Cl)cc1Cl,IC50,[23],16 µM (not active)
same,IC50,[25],> 6.22 µM (active)
O=C(O)c1cccc(N/N=C/c2cccnc2)c1,IC50,[34],> 50 µM (not active)
